Measurements from patent US20130260365A1, “HIGHLY EFFICIENT PROCESS FOR PRODUCING BIOETHANOL” (HONDA MOTOR CO., LTD., priority 2012, published 2013).

How the values were obtained:
[1] = tested on: fermentative microorganism cell (yeast); test: microbe, parasite or virus in culture; conditions: Saccharomyces cerevisiae, 24 h, read-out: Growth inhibition (%)
Description: Sugar solutions to which acetic acid or formic acid was added were prepared for comparison with a reagent sugar solution containing no organic acid, and the fermentative microorganism cell of the same count was added to each sugar solution and cultured. At this time, the pHs of the reagent sugar solutions were adjusted to be the same. The absorbance of the microorganic counts was measured 24 hours later. Using the sugar solution to which acetic acid or formic acid was not added as the criterion, the degrees of growth inhibition are shown below.

[2] = tested on: fermentative microorganism cell (yeast); conditions: for growth inhibition of fermentative microorganism cell: acetic acid 1000 or 500 mg/L, or formic acid 400 mg/L, added to reagent sugar solution, after 24 hours, compared with no organic acid added
[3] = tested on: fermentative microorganism cell; conditions: acetic acid added to give 17.79 mM vs sugar solution without acetic acid
Description: A model experiment was subsequently carried out. After 72 hours from feeding a microorganism cell to a rice straw sugar solution at 50° C.

CC(=O)O [Acetic acid, acetic acid] showed an inhibition at 5900 µM [1] of 10.4%, an inhibition at 11900 µM [1] of 28.8% and an inhibition at 17800 µM [1] of 75.3%. For the same compound, the “growth of the fermentative microorganism cell” value ([2]; 3000 mg/L of acetic acid added to the reagent sugar solution) was “no growth”, the “growth inhibition of fermentative microorganism cell” value [2] was “growth inhibition of fermentative microorganism cell was observed” and the “microorganic growth (absorbance)” value [3] was “evidently poorer”.
O=CO [Formic acid, formic acid] gave an inhibition at 10000 µM [1] of 5.6%, an inhibition at 20000 µM [1] of 61.1% and an inhibition at 30000 µM [1] of 71.4%. For the same compound, the “growth inhibition of fermentative microorganism cell” value [2] was “growth inhibition of fermentative microorganism cell was observed”.
